Measurements from PubChem BioAssay AID1996.
≈ marks a conversion by molar mass, not a printed value.

Conditions: buffer; pH 7.4; 200.0 µM

| Structure (SMILES) | solubility kinetic [µg/mL] |
| --- | --- |
| Cc1occc1C(=O)N1CCN(c2ccc(Cl)cc2)CC1 | 43.6 (≈ 143 µM) |
| COCCOC(=O)C1=C(C)NC(=O)NC1c1ccco1 (stereo not given) | > 42 |
| Cn1c([O-])c(Cc2cccc(Cl)c2Cl)c(=O)n(C)c1=O.[NH4+] | 43.6 |
| COc1ccc(C(=O)/C=C/Nc2ccccn2)c(OC)c1 | 4.2 (≈ 14.8 µM) |
| CCc1noc(C)c1C(=O)OCC(=O)c1ccc(NC(C)=O)cc1F | 9.1 (≈ 26.1 µM) |
| CCCN1C(=S)c2ccccc2C1c1ccccc1 (stereo not given) | 8.8 (≈ 32.9 µM) |
| CCOc1ccccc1N1CC(C(=O)N2CCOCC2)CC1=O (stereo not given) | 44.6 (≈ 140 µM) |
| CC(=O)c1ccc(NC(=S)NCCCN2CCOCC2)cc1 | > 48.2 |
| O=C(COc1ccc2c3c(c(=O)oc2c1)CCC3)N1CCCC1 | 15.8 (≈ 50.4 µM) |
| C[C@@H](C(=O)Nc1ccccc1N1CCOCC1)N1C(=O)C2CCCCC2C1=O (stereo not given in full) | > 57.8 |
| O=C(CCc1ccccc1)NC(=S)Nc1ccc2c(c1)C(=O)OC2 | < 0.4 |
| COc1ccc(CC(=O)OCC(=O)Nc2cccc(Cl)c2)cc1 | 34 (≈ 102 µM) |
| COc1ccc(CCN=C(C)c2cc(C)c(C)cc2O)cc1OC | > 49.1 |
| O=c1[nH]c(/C=C/c2cccc3ccccc23)nc2ccccc12 | 2.1 (≈ 7.04 µM) |
| Cc1cc(NC(=O)c2ccc([N+](=O)[O-])cc2Cl)no1 | 16.3 (≈ 57.9 µM) |
| CC(C)(C)C(=O)N1c2ccccc2CCc2ccccc21 | 28.7 (≈ 103 µM) |
| O=[N+]([O-])c1ccc(CSC2=NCCS2)cc1 | 16.1 (≈ 63.3 µM) |
| O=C(CSc1ncccn1)Nc1ccc2[nH]c(=O)[nH]c2c1 | > 45.2 |
| CC1CC(C)(C)Nc2ccc(N=O)cc21 (stereo not given) | > 30.6 |
| CN1C(=O)CSC1=Nc1ccc(Br)cc1 | 33.3 (≈ 117 µM) |
| C[C@@H](NCCc1ccc(O)cc1)[C@@H](O)c1ccc(O)cc1.Cl | > 48.6 |
| COc1ccccc1CNc1ccc2c(c1)CCC2 | 7.4 (≈ 29.2 µM) |

| Structure (SMILES) | solubility kinetic [µg/mL] |
| --- | --- |
| N#Cc1ccccc1OCC(=O)OCC(=O)N1CCCC1 | > 43.2 |
| O=C(Nc1ccc(O)cc1)c1ccc(NC(=O)c2ccco2)cc1 | 1.8 (≈ 5.58 µM) |
| CSc1ccc(-c2nc(CN(C)C3CCOC3)c(C)o2)cc1 (stereo not given) | 47.1 (≈ 148 µM) |
| CC(=O)C(Cc1ccccc1)NC(=O)COC(=O)c1cccc(C)c1[N+](=O)[O-] (stereo not given) | > 57.7 |
| O=C(C1CCC1)N1CCN(c2ccc(Cl)cc2)CC1 | 36.4 (≈ 131 µM) |
| Cc1ccc(C)c(C(=O)CSc2nc(C)cc(=O)[nH]2)c1 | 27.5 (≈ 95.4 µM) |
| Cc1onc(-c2ccccc2)c1C(=O)O/N=C(\N)c1ccc([N+](=O)[O-])o1 | 11.6 (≈ 32.6 µM) |
| O=C(NNC(=O)c1ccccc1-n1cccc1)c1ccc(F)cc1 | > 48.5 |
| O=C(CCCOc1ccccc1)Nc1ccc(Cl)c(S(=O)(=O)N2CCOCC2)c1 | 25.7 (≈ 58.6 µM) |
| C=CCn1c(SCC(N)=O)nc2sc3c(c2c1=O)CCC3 | 38.6 (≈ 120 µM) |
| COc1cccc(C(=S)N2CCOCC2)c1OS(=O)(=O)c1ccc(Cl)cc1 | 3.3 (≈ 7.71 µM) |
| COCCN1C(=O)CS/C1=C(/C#N)C(=O)NCc1ccco1 | 41.4 (≈ 129 µM) |
| O=C(O)c1cc([N+](=O)[O-])ccc1C(=O)Nc1cccc([N+](=O)[O-])c1 | > 49.7 |
| Cc1ccc(C)c(NC(=O)CSc2cccc3cccnc23)c1 | 2.2 (≈ 6.82 µM) |
| O=[N+]([O-])c1cc(C(F)(F)F)ccc1NC1CCN(Cc2ccccc2)C1 (stereo not given) | 1.7 (≈ 4.65 µM) |
| CC1(c2ccc(Cl)cc2)NC(=O)N(CC(=O)N2CCc3ccccc32)C1=O (stereo not given) | 1.5 (≈ 3.91 µM) |
| COc1ccccc1C(=O)Nc1ccncc1 | 33.4 (≈ 146 µM) |
| COc1ccc(NC(=O)CC(=O)Nc2ccc(OC)cc2)cc1 | 1.2 (≈ 3.82 µM) |
| CCCCCCC(O)(CCN1CCCCC1)c1ccccc1.Cl (stereo not given) | 49.3 |
| NC(=O)C1CCCN(C(=O)CCC(=O)c2cccs2)C1 (stereo not given) | > 44.2 |
| CCc1ccc(OCC(=O)N2CCc3ccccc32)cc1 | 0.9 (≈ 3.2 µM) |
| CC(C)(C)c1ccc(C(=O)NCC(=O)NCc2ccccn2)cc1 | 42.9 (≈ 132 µM) |

| Structure (SMILES) | solubility kinetic [µg/mL] |
| --- | --- |
| CC(=O)N1CCN(S(=O)(=O)c2cccc(C(=O)OCC(=O)N(Cc3ccccc3)C(C)(C)C)c2)CC1 | 60.5 (≈ 117 µM) |
| COC(=O)C(Cc1ccccc1)NC(=O)CCC(=O)NC(C)CCc1ccccc1 (stereo not given) | > 61.6 |
| Cc1oncc1C(=O)Nc1ccc2ccccc2c1 | 9.8 (≈ 38.8 µM) |
| O=C(Nc1ccc(F)cc1F)c1cc(Cl)sc1Cl | < 0.7 |
| NC(N)=Nc1nc(-c2ccccc2)c2cc(F)ccc2n1 | > 42.2 |
| O=C(CSc1cccc2cccnc12)Nc1cc(C(=O)O)cc(C(=O)O)c1 | 52 (≈ 136 µM) |
| COc1ccccc1NC(=O)CCCCC(=O)Nc1ccccc1OC | 41.8 (≈ 117 µM) |
| O=c1onc(-c2ccc(Cl)cc2Cl)n1-c1cccnc1 | 19.5 (≈ 63.3 µM) |
| CC(C(Sc1ccccc1N)c1ccccc1)[N+](=O)[O-] (stereo not given) | 15.1 (≈ 52.4 µM) |
| COc1ccc(C(=O)/C=C/c2cccnc2)c(OC)c1 | > 40.4 |
| Cc1cccc(NC(=O)c2cccc(NC(=O)c3ccco3)c2)c1C | 0.5 (≈ 1.5 µM) |
| Cc1ccccc1C(=O)OCC(=O)NCc1ccco1 | > 41 |
| O=C1Nc2ccccc2C1Cc1ccccn1 (stereo not given) | > 33.6 |
| CCc1ccccc1NC(=S)N(CCOC)C(C)c1ccco1 (stereo not given) | 35.1 (≈ 106 µM) |
| CC(=O)c1ccc(NC(=O)NC2CCCc3ccccc32)cc1 (stereo not given) | 4.9 (≈ 15.9 µM) |
| O=C(Nc1ccncc1)Nc1ccccc1Cl | 33.5 (≈ 135 µM) |
| COc1ccc(NC(=O)c2ccccc2C)cc1 | 27.1 (≈ 112 µM) |
| Cc1cccc(NS(=O)(=O)c2ccc3c(c2)CCC(=O)N3)c1 | > 47.5 |
| Cc1cc(C)cc(NC(=O)CS(=O)(=O)c2ccccc2)c1 | 44.2 (≈ 146 µM) |
| COc1ccccc1NS(=O)(=O)c1ccc(OC)c([N+](=O)[O-])c1 | > 50.8 |
| Cc1cccc(C(=O)Nc2ccc(Oc3cnccn3)cc2)c1 | 5.6 (≈ 18.3 µM) |
| Nc1cccc(-c2cnc3ccccc3n2)c1 | > 33.2 |

| Structure (SMILES) | solubility kinetic [µg/mL] |
| --- | --- |
| CCOC(=O)c1c(C)[nH]c(C)c1S(=O)(=O)N1CCCCC1 | > 47.2 |
| CC1Sc2ccc(C(=O)NCc3ccccn3)cc2NC1=O (stereo not given) | 45.6 (≈ 146 µM) |
| Cc1noc(C(=O)Nc2ccc(F)cc2F)c1Cl | 13.2 (≈ 48.4 µM) |
| O=c1c(Cc2ccc(F)cc2)c(O)ccn1CC1CCCO1 (stereo not given) | > 45.5 |
| Cc1cccc(C)c1NC(=O)CN1CCCC1 | 31.3 (≈ 135 µM) |
| CS(=O)(=O)NCCCNc1ccc(C(F)(F)F)cc1[N+](=O)[O-] | > 51.2 |
| CCOc1ccc(S(=O)(=O)N2CCN(C(=O)c3ccc(C)c(S(=O)(=O)N4CCOCC4)c3)CC2)cc1 | 19.3 (≈ 35.9 µM) |
| CCN(CC)c1nc(C)nc2c1sc(=S)n2C | 0.6 (≈ 2.24 µM) |
| COn1c(-c2ccc(Cl)cc2)nc2ncccc21 | > 39 |
| CC1CCN(C(=O)CSc2n[nH]c(-c3cccs3)n2)CC1 | > 48.4 |
| Cc1cc(C)cc(C(=O)OCC(=O)NC(=O)NC2CCCC2)c1 | 4.1 (≈ 12.9 µM) |
| CCc1ccc(NC(=O)c2cnccn2)cc1 | 21.4 (≈ 94.2 µM) |
| Cc1cccnc1NC(=O)CCc1c[nH]c2ccccc12 | > 41.9 |
| CCc1nc2sc3ccccc3c(=O)c2c(=O)n1Cc1ccc(OC)cc1 | 0.8 (≈ 2.11 µM) |
| O=C(NCc1nc(-c2ccc(Cl)cc2)no1)c1ccco1 | 9.4 (≈ 31 µM) |
| C=CCN(CC=C)C(=S)Nc1ccc2nsnc2c1 | > 43.6 |
| COc1cccc(CNCC(=O)NC(=O)NC2CCCC2)c1.O=C(O)C(=O)O | > 59.3 |
| Cc1ccc(Nc2c(F)c(F)c(F)c(F)c2C(=O)O)c(C)c1 | 40.4 (≈ 129 µM) |
| CC(C)CC(=O)Nc1cccc(-c2nc3ncccc3o2)c1 | 31.8 (≈ 108 µM) |
